The source of these data is paper PMC6628648, “Enabling microbial syringol conversion through structure-guided protein engineering” (Proceedings of the National Academy of Sciences of the …, 2019).

Molecules are shown by their SMILES.

The target of the assay is GcoA-F169A (Amycolatopsis sp., UniProt P0DPQ7, F169A). Briefly: H2O2 detection via HRP and Amplex Red (uncoupling reaction). It counts as biochemical, Amycolatopsis sp. ATCC 39116. More on the design: GST (N, cleaved yes); made in house; host or cells: E. coli Rosetta 2 (DE3). The following applies: referenced to NADH consumed. As to the method: A colorimetric assay involving HRP and Amplex Red was used to quantify H2O2 in the reaction between GcoA-F169A GcoA/GcoB, NADH and guaiacol, syringol, or 3MC, as described in SI Appendix. […]
Chain of GcoA-F169A (P0DPQ7 whole entry F169A): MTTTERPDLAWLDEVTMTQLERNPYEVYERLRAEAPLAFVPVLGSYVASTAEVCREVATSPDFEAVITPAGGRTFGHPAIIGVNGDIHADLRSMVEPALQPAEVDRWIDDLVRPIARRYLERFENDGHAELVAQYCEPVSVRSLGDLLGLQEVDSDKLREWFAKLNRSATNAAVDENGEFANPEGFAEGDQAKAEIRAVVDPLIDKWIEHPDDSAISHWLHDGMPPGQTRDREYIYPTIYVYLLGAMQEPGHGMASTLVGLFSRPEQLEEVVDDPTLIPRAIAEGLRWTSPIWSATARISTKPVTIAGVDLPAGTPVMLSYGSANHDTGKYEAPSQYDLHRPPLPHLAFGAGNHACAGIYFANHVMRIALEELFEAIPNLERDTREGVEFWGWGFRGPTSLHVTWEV

vi = Vmax[S]/(KM + [S]) (4) […]
The reaction of each aliquot was immediately quenched with 12.5
μL saturated ammonium sulfate, 7% v/v H2SO4 (pH 2.0) prior to loading onto the HPLC column. [Substrate] disappearance was referenced to GcoA (0.2 µM) and fit to a linear line to determine specific activity.
Data analysis. The consumption of NADH and subsequent production of formaldehyde and aromatic product were measured in triplicate and the error reported as ±1 standard deviation. To determine the statistical significance between NADH consumption and the products produced, the p-value was determined for all runs containing guaiacol, syringol, and 3MC. These values were calculated using two degrees of freedom, a tail value of two, and assuming a t-statistical value for unequal variances.
Detection of H2O2 via horseradish peroxidase (HRP) and Amplex Red assay. The reaction between 100 μM guaiacol or 3MC with 0.2 μM F169A/GcoB and 100 μM NADH in air-saturated buffer (25 mM HEPES, 50 mM NaCl, pH 7.5) was monitored continuously in a quartz cuvette, using the NADH consumption assay described above. The same thing was done for syringol, but with either 100 or 200 μM NADH. When there was no longer any change in the spectra, e.g., the reaction was completed, 100 μL was removed from the cuvette and pipetted into a 96-well microplate. A 5 mL solution containing 50 μL of 10 mM Amplex Red (prepared in DMSO and stored at -20 °C) and 100 μL of 10 U/mL HRP was made up in the above buffer. 100 μL of this was added to each of the wells with each reaction sample. The plate was incubated in the dark at room temperature for 30 min, at which point the absorbance at […]
572 nm was recorded by a Varioskan Lux microplate reader (Thermo Scientific). The absorbance was compared to a standard curve with 0-100 μM H2O2 to quantify the amount of peroxide produced in the reactions.
Purified protein was buffer exchanged into 10 mM HEPES pH 7.5 and concentrated to an A280 value of 12, as measured on a NanoDrop 2000 spectrophotometer (Thermo Fisher). Crystals of GcoA were grown with 2.4 M sodium malonate and 200 mM substrate, dissolved in 40% DMSO where necessary. Crystals were cryocooled directly in liquid N2 without further addition of cryoprotectants. All data were collected at Diamond Light Source (Harwell, UK). For each crystal, 1800 images were taken at 0.1o increments using the default wavelength of 0.9795Å on beamline i04. Data was captured on a Pilatus 6M-F detector. […]

Turning to `COc1cccc(O)c1O` [3MC, 3-methoxycatechol], the “% H2O2 produced” value (100 µM substrate + 100 µM NADH) is listed as 17 ± 0.2%. Regarding `COc1ccccc1O` [guaiacol, 2-methoxyphenol], the “% H2O2 produced” value (100 µM substrate + 100 µM NADH) is on record as 3.7 ± 0.6%.

For `COc1cccc(OC)c1O` [syringol, 2,6-dimethoxyphenol], the “% H2O2 produced” value (100 µM substrate + 100 µM NADH) turned out to be 7.4 ± 0.03% and the “% H2O2 produced” value (100 µM substrate + 200 µM NADH) was determined as 7.9 ± 0.5%.
